Assay results taken from ChEMBL document CHEMBL3875196, “Novel pyrazolo[1,5-a]pyridines with improved aqueous solubility as p110α-selective PI3 kinase inhibitors” (Bioorg Med Chem Lett, 2017).

Legend:
[1] = target: T1, Phosphatidylinositol 4,5-bisphosphate 3-kinase catalytic subunit delta isoform (Homo sapiens, UniProt O00329); experiment: Inhibition of p110delta (unknown origin) using L-alpha phosphatidylinositol as substrate after 1 hr in presence of [gamma33]-ATP by thin layer chromatographic analysis
T1 sequence (O00329 whole entry): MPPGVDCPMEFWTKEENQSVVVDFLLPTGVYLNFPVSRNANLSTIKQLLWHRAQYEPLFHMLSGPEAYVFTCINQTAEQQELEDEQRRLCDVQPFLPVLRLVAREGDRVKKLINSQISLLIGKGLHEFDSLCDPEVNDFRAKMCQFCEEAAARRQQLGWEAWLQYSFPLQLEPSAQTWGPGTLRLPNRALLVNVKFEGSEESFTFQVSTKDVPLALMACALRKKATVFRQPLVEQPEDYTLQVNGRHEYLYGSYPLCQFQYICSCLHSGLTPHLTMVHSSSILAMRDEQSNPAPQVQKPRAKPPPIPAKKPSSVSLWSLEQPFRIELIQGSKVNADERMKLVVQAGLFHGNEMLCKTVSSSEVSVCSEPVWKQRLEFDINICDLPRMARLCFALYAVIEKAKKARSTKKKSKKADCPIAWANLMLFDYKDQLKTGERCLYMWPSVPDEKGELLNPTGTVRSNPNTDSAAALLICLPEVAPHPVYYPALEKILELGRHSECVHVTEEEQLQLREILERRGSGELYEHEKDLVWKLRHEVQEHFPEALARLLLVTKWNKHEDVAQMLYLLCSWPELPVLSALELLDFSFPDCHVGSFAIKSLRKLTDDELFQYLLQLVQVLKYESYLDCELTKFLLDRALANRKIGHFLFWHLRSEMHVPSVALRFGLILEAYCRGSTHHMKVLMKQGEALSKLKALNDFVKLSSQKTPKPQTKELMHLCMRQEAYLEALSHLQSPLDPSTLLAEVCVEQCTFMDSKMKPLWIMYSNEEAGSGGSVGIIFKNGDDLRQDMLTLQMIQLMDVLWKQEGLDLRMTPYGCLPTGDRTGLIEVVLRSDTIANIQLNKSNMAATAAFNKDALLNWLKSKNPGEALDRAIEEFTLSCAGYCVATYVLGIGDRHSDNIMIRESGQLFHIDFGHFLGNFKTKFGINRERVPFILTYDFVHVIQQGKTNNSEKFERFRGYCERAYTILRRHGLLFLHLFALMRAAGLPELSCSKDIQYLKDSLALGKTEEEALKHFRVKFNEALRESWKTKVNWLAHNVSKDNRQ

PI3K p110 beta/p85 alpha = PI3K p110 beta/p85 alpha (Homo sapiens, UniProt P42338); experiment: Inhibition of recombinant human p110beta/N-terminal His-tagged human p85alpha expressed in baculovirus infected sf cells using L-alpha-phosphatidylinositol as substrate after 1 hr in presence of [gamma33]-ATP by thin layer chromatographic analysis
PI3K p110 beta/p85 alpha, sequence (P27986 whole entry): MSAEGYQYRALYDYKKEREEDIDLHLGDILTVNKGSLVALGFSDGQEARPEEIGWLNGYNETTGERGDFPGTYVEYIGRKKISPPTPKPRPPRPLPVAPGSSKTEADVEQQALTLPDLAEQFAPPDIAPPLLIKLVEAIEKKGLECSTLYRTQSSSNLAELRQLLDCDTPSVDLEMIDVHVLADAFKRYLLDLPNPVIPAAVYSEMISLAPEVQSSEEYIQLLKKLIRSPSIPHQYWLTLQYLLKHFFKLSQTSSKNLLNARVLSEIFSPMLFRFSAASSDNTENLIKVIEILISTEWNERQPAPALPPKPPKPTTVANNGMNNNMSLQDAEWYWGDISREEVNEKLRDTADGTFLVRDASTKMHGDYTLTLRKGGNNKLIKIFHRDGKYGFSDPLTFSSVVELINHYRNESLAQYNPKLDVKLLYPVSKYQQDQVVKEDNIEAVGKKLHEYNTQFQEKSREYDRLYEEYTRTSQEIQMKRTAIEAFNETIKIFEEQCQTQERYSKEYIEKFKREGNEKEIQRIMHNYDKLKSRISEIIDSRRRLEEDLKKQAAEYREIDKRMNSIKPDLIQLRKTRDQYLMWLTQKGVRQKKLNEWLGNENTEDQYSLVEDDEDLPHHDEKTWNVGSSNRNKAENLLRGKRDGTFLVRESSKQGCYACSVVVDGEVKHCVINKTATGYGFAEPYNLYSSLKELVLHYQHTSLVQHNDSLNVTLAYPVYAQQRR
PI3K p110 beta/p85 alpha, sequence (P42338 whole entry): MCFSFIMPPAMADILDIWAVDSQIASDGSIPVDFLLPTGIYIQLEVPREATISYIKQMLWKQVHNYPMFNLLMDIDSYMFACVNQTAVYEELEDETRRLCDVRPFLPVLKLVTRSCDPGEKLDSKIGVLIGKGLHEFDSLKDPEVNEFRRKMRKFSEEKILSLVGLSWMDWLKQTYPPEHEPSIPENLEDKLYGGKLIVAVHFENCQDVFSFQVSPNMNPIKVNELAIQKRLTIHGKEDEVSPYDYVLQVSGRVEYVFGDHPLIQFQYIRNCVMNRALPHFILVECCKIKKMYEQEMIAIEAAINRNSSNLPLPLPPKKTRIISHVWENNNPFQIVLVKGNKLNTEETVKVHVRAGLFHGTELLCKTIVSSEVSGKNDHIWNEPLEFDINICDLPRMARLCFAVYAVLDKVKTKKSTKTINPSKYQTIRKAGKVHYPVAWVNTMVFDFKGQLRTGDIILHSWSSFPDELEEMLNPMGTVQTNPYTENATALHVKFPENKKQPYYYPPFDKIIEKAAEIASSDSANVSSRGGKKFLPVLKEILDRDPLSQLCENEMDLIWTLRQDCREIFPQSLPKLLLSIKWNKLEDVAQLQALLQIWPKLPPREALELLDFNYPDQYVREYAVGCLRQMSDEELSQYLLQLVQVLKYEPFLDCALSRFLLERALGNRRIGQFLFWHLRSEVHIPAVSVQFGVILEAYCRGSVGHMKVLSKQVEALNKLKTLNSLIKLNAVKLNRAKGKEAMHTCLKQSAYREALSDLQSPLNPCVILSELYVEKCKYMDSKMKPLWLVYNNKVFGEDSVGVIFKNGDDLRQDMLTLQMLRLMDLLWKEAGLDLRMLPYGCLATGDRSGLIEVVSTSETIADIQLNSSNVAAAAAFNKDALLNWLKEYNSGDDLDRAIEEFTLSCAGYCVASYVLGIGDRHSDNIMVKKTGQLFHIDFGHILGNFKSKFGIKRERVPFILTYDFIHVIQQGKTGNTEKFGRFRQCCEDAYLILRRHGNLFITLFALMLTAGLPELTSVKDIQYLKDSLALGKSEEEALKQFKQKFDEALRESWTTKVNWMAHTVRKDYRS

[2] = Antiproliferative activity against wild type p110alpha expressing human NZOV9 cells after 5 days by [3H]-thymidine incorporation assay; assay type: functional, cell-based
[3] = Inhibition of recombinant mouse p110alpha/N-terminal His-tagged human p85alpha expressed in baculovirus infected Sf21 cells using L-alpha-phosphatidylinositol as substrate after 1 hr in presence of [gamma33]-ATP by thin layer chromatographic analysis
[4] = Antiproliferative activity against wild type p110alpha expressing human NZB5 cells after 5 days by [3H]-thymidine incorporation assay; assay type: functional, cell-based

Compound	IC50 [1] [nM]	IC50 (PI3K p110 beta/p85 alpha) [nM]	IC50 [2] [nM]	IC50 [3] [nM]	IC50 [4] [nM]
CN(C)CCN(C)c1ccc(C#N)cc1S(=O)(=O)N(C)/N=C/c1cnn2ccc(C#N)cc12	380	2000	47	81	55
CN(CCc1ccncc1)c1ccc([N+](=O)[O-])cc1S(=O)(=O)N(C)/N=C/c1cnn2ccc(C#N)cc12	61	160	250	17	< 2
CN(CCCN1CCOCC1)c1ccc([N+](=O)[O-])cc1S(=O)(=O)N(C)/N=C/c1cnn2ccc(Br)cc12	–	–	670	370	94
CN(C)CCOc1ccc([N+](=O)[O-])cc1S(=O)(=O)N(C)/N=C/c1cnn2ccc(C#N)cc12	> 1000	> 1000	170	75	100
CN(/N=C/c1cnn2ccc(C#N)cc12)S(=O)(=O)c1cc([N+](=O)[O-])ccc1OCc1ccccn1	950	5600	660	6	1300
CN(CCN1CCOCC1)c1ccc([N+](=O)[O-])cc1S(=O)(=O)N(C)/N=C/c1cnn2ccc(C#N)cc12	74	1000	210	19	260
CN(/N=C/c1cnn2ccc(Br)cc12)S(=O)(=O)c1cc([N+](=O)[O-])ccc1OCCN1CCOCC1	350	2900	550	51	270
C/C(=N\NS(=O)(=O)c1cc([N+](=O)[O-])ccc1N(C)CCCN1CCOCC1)c1cnn2ccc(Br)cc12	–	–	3200	448	900
CN(CCCN1CCOCC1)c1ccc(C#N)cc1S(=O)(=O)N(C)/N=C/c1cnn2ccc(C#N)cc12	370	> 1000	360	240	21
C/C(=N\N(C)S(=O)(=O)c1cc([N+](=O)[O-])ccc1N(C)CCCN1CCOCC1)c1cnn2ccc(Br)cc12	–	–	3800	> 1000	5100
Cc1ccc([N+](=O)[O-])cc1S(=O)(=O)N(CCO)/N=C/c1cnn2ccc(C#N)cc12	–	–	140	1.3	–
CN(CCCN1CCOCC1)c1ccc([N+](=O)[O-])cc1S(=O)(=O)N(C)/N=C/c1cnn2ccc(C#N)cc12	170	510	560	26	71
CCN(CC)CCN(C)c1ccc([N+](=O)[O-])cc1S(=O)(=O)N(C)/N=C/c1cnn2ccc(C#N)cc12	66	330	340	75	500
C/C(=N\NS(=O)(=O)c1cc([N+](=O)[O-])ccc1N(C)CCN(C)C)c1cnn2ccc(Br)cc12	> 1000	> 1000	420	208	420
CN(/N=C/c1cnn2ccc(C#N)cc12)S(=O)(=O)c1cc([N+](=O)[O-])ccc1NCc1ccccn1	350	> 1000	680	25	1100
C/C(=N\N(C)S(=O)(=O)c1cc([N+](=O)[O-])ccc1N(C)CCN(C)C)c1cnn2ccc(C#N)cc12	658	> 1000	860	328	1800
CN(Cc1ccccn1)c1ccc([N+](=O)[O-])cc1S(=O)(=O)N(C)/N=C/c1cnn2ccc(Br)cc12	–	> 1000	580	180	93
C/C(=N\NS(=O)(=O)c1cc([N+](=O)[O-])ccc1N(C)CCCN1CCOCC1)c1cnn2ccc(C#N)cc12	–	–	9500	333	2400

Compound	IC50 [1] [nM]	IC50 (PI3K p110 beta/p85 alpha) [nM]	IC50 [2] [nM]	IC50 [3] [nM]	IC50 [4] [nM]
CN(CCc1cccnc1)c1ccc([N+](=O)[O-])cc1S(=O)(=O)N(C)/N=C/c1cnn2ccc(C#N)cc12	55	180	740	9	< 2
CN(CCN)c1ccc([N+](=O)[O-])cc1S(=O)(=O)N(C)/N=C/c1cnn2ccc(C#N)cc12	470	> 1000	57	50	29
C/C(=N\NS(=O)(=O)c1cc([N+](=O)[O-])ccc1N(C)CCN(C)C)c1cnn2ccc(C#N)cc12	676	900	2000	51	460
CN(C)CCN(C)c1ccc(C#N)cc1C(=O)N(C)/N=C/c1cnn2ccc(C#N)cc12	–	–	6200	630	2900
C/C(=N\N(C)S(=O)(=O)c1cc([N+](=O)[O-])ccc1N(C)CCN(C)C)c1cnn2ccc(Br)cc12	> 1000	–	930	> 1000	3500
CN(/N=C/c1cnn2ccc(C#N)cc12)S(=O)(=O)c1cc(C#N)ccc1OCCN1CCOCC1	680	> 1000	390	360	400
CNCCN(C)c1ccc([N+](=O)[O-])cc1S(=O)(=O)N(C)/N=C/c1cnn2ccc(C#N)cc12	280	1000	11	65	24
CN(CCN1CCCCC1)c1ccc([N+](=O)[O-])cc1S(=O)(=O)N(C)/N=C/c1cnn2ccc(C#N)cc12	450	4200	49	79	92
CN(C)CCN(C)c1ccc([N+](=O)[O-])cc1C(=O)N(C)/N=C/c1cnn2ccc(C#N)cc12	68	230	3100	580	5600
CN(CCc1ccccn1)c1ccc([N+](=O)[O-])cc1S(=O)(=O)N(C)/N=C/c1cnn2ccc(C#N)cc12	60	410	410	9	5
CN(Cc1cccnc1)c1ccc([N+](=O)[O-])cc1S(=O)(=O)N(C)/N=C/c1cnn2ccc(C#N)cc12	160	530	630	5.8	540
CN(C)CCNc1ccc([N+](=O)[O-])cc1S(=O)(=O)N(C)/N=C/c1cnn2ccc(C#N)cc12	> 1000	> 1000	640	430	750
CN(Cc1ccncc1)c1ccc([N+](=O)[O-])cc1S(=O)(=O)N(C)/N=C/c1cnn2ccc(C#N)cc12	150	390	480	15	44
CN(Cc1ccccn1)c1ccc(C#N)cc1S(=O)(=O)N(C)/N=C/c1cnn2ccc(C#N)cc12	–	–	960	40	130
CN(C)CCN(C)c1ccc([N+](=O)[O-])cc1S(=O)(=O)N(C)/N=C/c1cnn2ccc(Br)cc12	–	–	< 2	510	< 2
C/C(=N\N(C)S(=O)(=O)c1cc([N+](=O)[O-])ccc1N(C)Cc1ccccn1)c1cnn2ccc(Br)cc12	–	–	3000	1040	2600
C/C(=N\N(C)S(=O)(=O)c1cc([N+](=O)[O-])ccc1N(C)CCCN1CCOCC1)c1cnn2ccc(C#N)cc12	–	–	2400	> 1000	3300
